Each block holds one molecule with its values, some of them ahead of it.
Assays:
[1] = DLS analysis of NDs, insulin and ND-insulin (size, PDI, zeta potential); format: physicochemical; conditions: for Average Size (μm): DLS hydrodynamic cluster size
Method: Hydrodynamic size and zeta potential of samples was measured with a Zetasizer Nano (Malvern Instruments, Worcestershire, United Kingdom). NDs and insulin were prepared as previously described. Briefly, the particles were suspended in buffer with corresponding pH at a concentration of 50 mg/mL. The size measurements were performed at 25° C. and at a 173° scattering angle. The mean hydrodynamic diameter was determined by cumulative analysis. The zeta potential determinations were based on electrophoretic mobility of the microparticles in the aqueous medium, which was performed using folded capillary cells in automatic mode.

[2] = tested on: Granulocyte colony-stimulating factor (Csf3/G-csf); assay: Quantitative RT-PCR gene expression, Csf3/G-csf; format: cell-based, murine; conditions: 3T3-L1 adipocytes; (2) 0.1 μM insulin
Method: (§1) RT-PCR procedures were conducted as described previously. 3T3-L1 adipocytes were plated in 6-well plates, serum-starved for 4 hours and then recovered in media solutions of DMEM, insulin, approximately 0.1 μM insulin released from ND-insulin by NaOH (pH 10.5), resultant solution from centrifuged ND-insulin in pH-neutral water, ND-insulin treated with NaOH (1 μM total insulin) and NDs with bound insulin (ND-insulin, 1 μM total insulin). Preparations of media solutions containing DMEM, insulin, NDs and NaOH were conducted in a similar fashion to those implemented for the MTT assay. RNA isolation was completed by lysing cells with TRIzol reagent (Invitrogen Corporation, Carlsbad, Calif.) and added to chloroform to obtain genetic material by centrifugation. cDNA synthesis was performed using the iScript Select cDNA Synthesis Kit (Bio-Rad, Hercules, Calif.). PCR expression of the Ins1 and Csf3/G-csf genes (Integrated DNA Technologies, Coralville, Iowa) were quantified by the MyiQ Single Color Real-Time PCR machine (Bio-Rad, Hercules, Calif.) using SYBER Green detection reagents (Quanta Biosciences, Gaithersburg, Md.). The Rpl32 gene (Integrated DNA Technologies) served as the housekeeping gene for normalization of cDNA among samples.

[3] = Insulin desorption from NDs in NaOH of varying pH; format: physicochemical; conditions: 4:1 ratio; NaOH at pH 10.5
Method: Determination of insulin adsorption to NDs was performed by protein detection assays before and after centrifugation. Insulin was added to a ND suspension, centrifuged at 14,000 rpm for 2 hours and the resultant solution extracted and quantified. Detection of desorbed insulin was performed by adding alkaline solutions of 1 mM NaOH, adjusted for varying pH, to samples of ND-insulin in suspension. Binding ratios were determined similar to the adsorption test.
The desorption assays were conducted in a similar manner as the adsorption assays. Aqueous solutions of FITC-labeled and standard insulin were added to ND suspensions at 5:1 and 4:1 ratios, respectively. Initial and centrifuged samples were measured, and the amount of insulin desorbed was calculated. […] Separate tests at pH 10.7 show the ND-insulin complex achieving 53.3±1.2% desorption.

[4] = 5-day insulin desorption test; format: physicochemical; conditions: for cumulative insulin released from NDs by day 1: of total adsorbed insulin, 4:1 ratio
Method: Additionally, a 5-day desorption test was conducted to determine cumulative insulin release. Samples were prepared by combining NDs and insulin (4:1 ratio), centrifuging at 14,000 rpm for 2 hours and extracting the remaining solution to remove any non-adsorbed insulin. Subsequently, a 1 mM NaOH solution adjusted to pH 10.5 was added to the samples, mixed thoroughly and centrifuged after a 24-hour period to determine protein concentration utilizing a BCA assay. In addition to alkaline-mediated release, water was added to a separate set of samples. The samples were replenished with NaOH or water after each measurement for the respective conditions, and the process was repeated every 24 hours over the course of 5 days.

[5] = reference [38]; cited from earlier work
[6] = tested on: RAW 264.7 macrophage cells; assay: MTT cell viability assay after serum starvation; format: cell-based, murine; conditions: serum-starved 8 hours, 24-hour recovery, 0.1 μM versus 1 μM insulin
Method: RAW 264.7 murine macrophages were plated in 96-well plates, serum-starved for 8 hours and then incubated for 24 hours. Post-starvation media was composed of the following conditions: DMEM, 0.1 μM insulin, 1 μM insulin, DMEM 10% FBS, approximately 0.1 μM insulin released from ND-insulin complex by NaOH at pH 10.5 (insulin present in media), resultant solution from centrifuged ND-insulin in water, ND-insulin treated with NaOH at pH 10.5 (1 μM total insulin, ND-insulin complex present in media) and ND-insulin (1 μM total insulin, ND-insulin complex present in media). Insulin released from NDs was prepared by centrifuging samples of NDs with adsorbed insulin in NaOH and extracting the resultant solution, which could be reconstituted with media to 0.1 μM insulin. In a similar fashion, water was utilized as a neutral solution for relevant desorption analysis. Methylthiazolyldiphenyl-tetrazolium bromide (MTT) solution (Sigma-Aldrich) was added corresponding to 10% of total volume, and then incubated for 3 hours. After formazan crystal formation, the media was removed and MTT solvent, 0.1N HCl in anhydrous isopropanol (Sigma-Aldrich), was added to samples to solubilize the MTT dye. Sample absorbance measurements occurred at 570 nm, accounting for background at a wavelength of 690 nm.

Insulin 1 (Ins1) = assay: Quantitative RT-PCR gene expression, Ins1; format: cell-based, murine; conditions: 3T3-L1 adipocytes; serum-starved 4 hours, 2-hour recovery; (2) 0.1 μM insulin
Method: as §1

[7] = Nanodiamond-drug binding assays (UV-vis spectrophotometry, centrifugation); format: physicochemical; conditions: UV-vis spectrophotometry and centrifugation (14000 rpm) pelleting
Method: The binding efficiency of therapeutics such as daunorubicin, idarubicin, and others were analyzed using UV-vis spectrophotometry, as well as centrifugation assays (SEE FIGS. 18-39). In all cases, nanodiamond-drug interactions were capable of comprehensively pelleting the therapeutics (SEE FIGS. 19, 22, 25, 28, 30, 33, 36, and 39), indicating potent adsorption which was further confirmed via spectrophotometric analysis […], […], 1-32, 34-35, and 37-38).

[8] = Desorption of drug from Nanodiamond conjugates in water and PBS; format: physicochemical
[9] = Particle size and zeta potential measurement (DLS) of ND-drug complexes; format: physicochemical; conditions: for average particle size upon complexing with NDs: ND 1 mg/mL, therapeutic 0.1 mg/mL
Method: The particle size and zeta potential of the complexes were measured using a Zetasizer Nano (Malvern Instruments). […] ND:Purvalanol A complexes were prepared in a similar manner in 5% aqueous DMSO as described previously. […] All size measurements were performed at 25° C. at a 90° scattering angle. Mean hydrodynamic diameters were obtained via cumulative analysis of 11 measurements.

[10] = ND pulldown with UV-Vis spectrophotometric analysis of drug adsorption; format: physicochemical; conditions: 14,000 rpm, 2 hours, 25° C.
Method: All samples underwent centrifugation at 14,000 rpm for 2 hours at 25° C., where the supernatant was then subsequently collected for spectroscopic scans from 200 nm to 600 nm. Drug loading concentrations were determined via ND-complex pull-down experiments which comprised of an initial absorbance reading, then a 2 hour centrifuge of all samples at 25° C. and 14000 RPM followed by a final absorbance reading. The concentration of loaded drug was then calculated by measuring the difference between the initial and final readings.

[11] = Dispersion in water / turbidity of drug with and without NDs; format: physicochemical; conditions: DMSO mixtures diluted 20 fold in water to 5% DMSO; 0.1 mg/ml Purvalanol A, 1 mg/ml ND
[12] = tested on: HepG2 tissue culture cells; assay: DNA fragmentation (laddering) assay; format: cell-based; conditions: 24 hours, 10:1 ND:Purvalanol A in 5% DMSO in water, 1:10 dilution
Method: A 1:10 dilution of 5% DMSO in water, NDs in 5% DMSO in water (1 mg/ml), ND:Purvalanol A in 5% DMSO in water (10:1 ratio—1 mg/ml ND, 0.1 mg/ml Purvalanol A), and Purvalanol A in 5% DMSO in water (0.1 mg/ml) were added to HepG2 tissue culture cells and grown for 24 hours. The cultured cells were lysed in 500 μL lysis buffer (10 mM Tris-HCl, pH 8.0, 10 mM EDTA, 1% Triton X-100). 30-minute incubations at 37° C. followed separate RNase A and proteinase K treatment. Following phenol chloroform extraction, nuclear DNA was isolated in isopropyl alcohol and stored at −80° C. overnight. The samples were then resuspended in DEPC water following a 70% ethanol wash and electrophoresed using a 0.8% agarose gel, and finally stained with ethidium bromide.

Molecule: insulin: bovine insulin (Sigma-Aldrich)
- zeta potential at pH 10.5 compared with pH 7 [1]: substantially more negative
- zeta potential ([1]; at both pH 7 and 10.5): negative values
- PDI ([1]; pH 7): 0.97 ± 0.046
- Average Size (μm) ([1]; pH 7): 1.59 ± 0.038 μm
- PDI ([1]; pH 10.5): 0.99 ± 0.011
- Average Size (μm) ([1]; pH 10.5): 2.28 ± 0.66 μm
- relative expression of Csf3/G-csf [2]: comparably higher than that of Ins1
- desorption (release) of standard insulin from NDs [3]: 31.3±1.6%
- amount of insulin released with NaOH relative to water ([4]; 5 days): more than 20 times
- total insulin eluted from NDs by day 5 ([4]; NaOH (pH 10.5)): 45.8±3.8 wt %
- cumulative insulin released from NDs by day 1 ([4]; NaOH (pH 10.5)): 32.7±1.9 wt %
- total insulin eluted from NDs by day 5 ([4]; water): 2.2±1.2 wt %
- cumulative insulin released from NDs by day 1 ([4]; water): 0.2±0.1 wt %
- isoelectric point [5]: approximately 5.6
- relative viability [6]: increased viability at higher insulin concentrations
- relative expression of Ins1 (Insulin 1 (Ins1)): lowest expression of Ins1

Molecule: COc1cccc2c1C(=O)c1c(O)c3c(c(O)c1C2=O)C[C@@](O)(C(C)=O)C[C@@H]3O[C@H]1C[C@H](N)[C@H](O)[C@H](C)O1 [DAUN, daunorubicin]
- binding / adsorption between ND surface and therapeutic [7]: exceptional binding
- release profile of drug desorbed from Nanodiamond conjugates [8]: drug elution is sustained over several hours

Molecule: 4-hydroxytamoxifen [4-OHT]
- average particle size upon complexing with NDs [9]: 278.9 nm
- mean diameter (particle size) ([9]; in 5% DMSO, not complexed): 485.1 nm
- UV-Vis absorbance of supernatant before and after centrifugation (pulldown) [10]: insignificant change in the UV-Vis absorbance

Further lines, with some results ahead:

- binding / adsorption between ND surface and therapeutic [7]: exceptional binding
Molecule: COc1cccc2c1C(=O)c1c(O)c3c(c(O)c1C2=O)C[C@@](O)(C(=O)CO)C[C@@H]3O[C@H]1C[C@H](N)[C@@H](O)[C@H](C)O1 [EPI, epirubicin]
- release profile of drug desorbed from Nanodiamond conjugates [8]: drug elution is sustained over several hours

- binding / adsorption between ND surface and therapeutic [7]: exceptional binding
Molecule: CC(=O)[C@]1(O)Cc2c(O)c3c(c(O)c2[C@@H](O[C@H]2C[C@H](N)[C@H](O)[C@H](C)O2)C1)C(=O)c1ccccc1C3=O [IDA, idarubicin]
- release profile of drug desorbed from Nanodiamond conjugates [8]: drug elution is sustained over several hours

- average particle size upon complexing with NDs [9]: 556 nm
Molecule: CC(C)[C@H](CO)Nc1nc(Nc2cccc(Cl)c2)c2ncn(C(C)C)c2n1 [Purvalanol A]
- turbidity after dilution in water [11]: precipitated out of solution, producing a turbid liquid
- DNA fragmentation [12]: Fragmentation was evident

Source: US10799593B2, “Nanodiamond particle complexes” (priority 2008, dated 2020)
